Data as given in ChEMBL document CHEMBL5338790, “Discovery of Subcellular-Targeted Aza-BODIPY Photosensitizers for Efficient Photodynamic Antitumor Therapy” (J Med Chem, 2023).

Legend:
[1] = Toxicity in Balb/C nu/nu mouse xenografted with human HeLa cells assessed as change in heart histology at 2.5 umol/kg, iv with photo-irradiation at 30 J/cm2 after 1 hr of compound administration measured after 24 days by H and E staining based analysis; format: organism-based; details: in vivo, 576 h, dose 2.5 µmol/kg, time 24 day
[2] = Drug localization in mitochondria of human HeLa cells at 5 uM incubated for 30 mins by MitoTracker Green FM dye based confocal scanning microscopic analysis; format: ADME; details: 0.5 h
HeLa = assay: Induction of apoptosis in human HeLa cells assessed as necrotic cells at 12.5 nM incubated for 3 hrs with photo-irradiation at 54 J/cm2 by Annexin V-FITC/PI staining based flow cytometry relative to control; format: functional
[3] = Drug distribution in kidneys of Balb/C nu/nu mouse xenografted with human HeLa cells at 2.5 umol/kg, iv measured for 24 hr by IVIS imaging analysis; format: ADME, organism-based, Kidney; details: in vivo, dose 2.5 µmol/kg

Drug uptake [2]: Not Active
Drug uptake [3]: Not Active
SMILES: COc1ccc2c(c1)CCc1c(-c3ccccc3)c3n(c1-2)[B-](F)(F)[N+]1=C(c2ccc(OCC(=O)NCCCN4CCOCC4)cc2)C(I)=C(c2ccccc2)C1=N3
Activity [1]: Non-Toxic
Activity (HeLa): 1.07%
